Data: paper PMC3101196, “Trapping Conformational States Along Ligand-Binding Dynamics of Peptide Deformylase: The Impact of Induced Fit on Enzyme Catalysis” (PLoS Biology, 2011)
Several values for one entry are separate records, joined by “and”; a condition that tells them apart may be missing. Equal entries are not always repeated.

Legend:
[1] = test system: CSCC[C@H](NC=O)C(=O)N[C@@H](C)C(=O)N[C@@H](CO)C(=O)O; test: purified protein, by the assay type; conditions: other: G41Q, substrate Fo-Met-Ala-Ser, 100 nM enzyme, 750 µM NiCl2, 37°C
Method: The kinetics parameters were derived from iterative non-linear least square calculations using the Michaelis-Menten equation based on the experimental data (Sigma-Plot; Kinetics module). […] The data were then calculated according to the method of Henderson, which can be used to determine the dissociation constant of the tight-binding competitive enzyme inhibitor [28],[49],[72] by varying both the inhibitor and substrate concentrations. To determine K I, k 5, and k 6, the reaction was initiated by the addition of enzyme as previously described [29],[49]. […] From the set of values obtained at various concentrations of I, k5 and k6 could be derived using kobs = k6 + k5[I]/(KI + [I]).

[2] = target: T1, AtPDF variant I42A (Arabidopsis thaliana, UniProt Q9FUZ2, I122A); test: biochemical
T1 construct: Expression and purification of mature Arabidopsis thaliana PDF1B and all variants (i.e., AtPDF); made in house
Method: (§1) Assay of PDF activity was coupled to formate dehydrogenase, where the absorbance of NADH at 340 nm was measured at 37°C as previously described. […] The kinetics parameters were derived from iterative non-linear least square calculations using the Michaelis-Menten equation based on the experimental data (Sigma-Plot; Kinetics module). […] The data were then calculated according to the method of Henderson, which can be used to determine the dissociation constant of the tight-binding competitive enzyme inhibitor [28],[49],[72] by varying both the inhibitor and substrate concentrations. To determine K I, k 5, and k 6, the reaction was initiated by the addition of enzyme as previously described,[49]. […] From the set of values obtained at various concentrations of I, k5 and k6 could be derived using kobs = k6 + k5[I]/(KI + [I]).

[3] = test system: AtPDF wild-type (WT) and G41M and G41Q; test: ΔΔGbinding calculated from Kd values; design: species or system Arabidopsis thaliana; conditions: calculated from the K d values for actinonin binding to WT and G41M and G41Q
Method: The percentage of the distance required to make a hydrogen bond (2.8 Å) is reported (dark squares). […] The values were calculated as follows. For the WT, it corresponds to the RT ln(KI*/KI) value, where R is the ideal gas constant and T is the temperature in Kelvin. RT is 0.616 kcal.mol^−1 at 37°C. For the G41M and G41Q variants, the ΔΔGbinding corresponds to RT ln(KI-G41variant/KD-WT). The obtained values are similar to that obtained if the kcat/Km substitutes the KD value in the calculation (ΔΔGbinding = RT ln(kcat/Km –G41variant/kcat/Km –WT). (EPS) Click here for additional data file.

[4] = target: T2, AtPDF variant I42F (Arabidopsis thaliana, UniProt Q9FUZ2, I122F); test: Isothermal titration calorimetry (ITC); type: binding
T2 construct: Expression and purification of mature Arabidopsis thaliana PDF1B and all variants (i.e., AtPDF); made in house
Method: (§2) ITC experiments were performed using a VP-ITC isothermal titration calorimeter (Microcal Corp.). Experiments were performed at 37°C. […] A theoretical titration curve was fitted to the experimental data using the ORIGIN software (Microcal). This software uses the relationship between the heat generated after each injection and ΔH° (enthalpy change in kcal/mol), K A (the association binding constant in M^−1), n (number of binding sites per monomer), total protein concentration, and free and total ligand concentrations. The thermal stability of the WT and variants of Ni-AtPDF1B was studied by DSC using VP-DSC calorimetry (Microcal Corp.). DSC measurements were made with 10 µM protein solutions in buffer C. […] The same buffer was used as a reference. All solutions were degassed just before loading into the calorimeter. Scanning was performed at 1°C/min. The temperature dependence of the partial molar capacity (Cp) was expressed in kcal/K after subtracting the buffer signal using Origin(R) software.
(§3) The volume of each reaction was 10 µl, and injections were made at 240 s intervals. Top, raw data from the titration. Each peak corresponds to the injection. Bottom, the peaks in the upper panel were integrated with ORIGIN software and the values were plotted versus injection number. Each point corresponds to the heat in µcal generated by the reaction upon each injection. The solid line is the curve fit to the data by the Origin program. This fit yields values for K d. Experiments were done with wild type protein and others variants, and gave similar raw data and curve fit. (A) WT; (B) variant G41M; (C) variant I42W. (EPS) Click here for additional data file.

[5] = target: T3, AtPDF variant I42W (Arabidopsis thaliana, UniProt Q9FUZ2, I122W); test: Isothermal titration calorimetry (ITC); type: binding
T3 construct: Expression and purification of mature Arabidopsis thaliana PDF1B and all variants (i.e., AtPDF); made in house
Method: as §2, §3
Target sequence in this assay (Q9FUZ2 57-273 I122W): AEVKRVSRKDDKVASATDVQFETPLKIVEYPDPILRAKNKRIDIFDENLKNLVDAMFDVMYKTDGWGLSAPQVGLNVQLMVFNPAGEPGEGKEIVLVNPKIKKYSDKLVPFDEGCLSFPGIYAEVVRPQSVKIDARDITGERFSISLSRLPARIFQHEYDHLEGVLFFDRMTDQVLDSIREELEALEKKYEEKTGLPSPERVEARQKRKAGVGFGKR

[6] = target: T4, AtPDF variant G41M (Arabidopsis thaliana, UniProt Q9FUZ2, G121M); test: Isothermal titration calorimetry (ITC); type: binding
T4 construct: Expression and purification of mature Arabidopsis thaliana PDF1B and all variants (i.e., AtPDF); made in house
Method: as §2, §3

[7] = target: T5, AtPDF (Arabidopsis thaliana, UniProt Q9FUZ2); test: Isothermal titration calorimetry (ITC); type: binding; design: Expression and purification of mature Arabidopsis thaliana PDF1B and all variants (i.e., AtPDF); made in house; conditions: WT; from ITC (value in parentheses); 37°C
Method: as §2
The volume of each reaction was 10 µl, and injections were made at 240 s intervals. Top, raw data from the titration. Each peak corresponds to the injection. Bottom, the peaks in the upper panel were integrated with ORIGIN software and the values were plotted versus injection number. Each point corresponds to the heat in µcal generated by the reaction upon each injection. […]

[8] = test system: almost all of the AtPDF variants; test: Differential scanning calorimetry (DSC), thermal stability; type: binding, Arabidopsis thaliana
Method: as §2

[9] = test system: T6, AtPDF variant G41Q; test: as above; type: binding, Arabidopsis thaliana
T6 construct: Expression and purification of mature Arabidopsis thaliana PDF1B and all variants (i.e., AtPDF); made in house
Method: as §2

[10] = target: AtPDF variant G41Q (Arabidopsis thaliana, UniProt Q9FUZ2, G121Q); test: PDF activity assay coupled to formate dehydrogenase
Method: as §1

[11] = target: T5, AtPDF; test: PDF activity assay coupled to formate dehydrogenase (NADH absorbance at 340 nm)
Method: as §1
(§4) The enzyme concentration used in the assay was 100 nM.

[12] = target: T4, AtPDF variant G41M; type: biochemical; conditions: nm = not measurable
Method: as §1

[13] = target: EcPDF (Escherichia coli, UniProt P0A6K3)
Method: as §1

[14] = target: T4, AtPDF variant G41M; test: Differential scanning calorimetry (DSC), thermal stability; type: binding
Method: as §2

[15] = target: T2, AtPDF variant I42F; test: biochemical; conditions: for Ki: 100 nM enzyme
Method: as §1, §4

[16] = target: T3, AtPDF variant I42W; test: biochemical; conditions: for Ki: 100 nM enzyme
Method: as §1, §4
Target sequence in this assay (Q9FUZ2 83-273 I122W): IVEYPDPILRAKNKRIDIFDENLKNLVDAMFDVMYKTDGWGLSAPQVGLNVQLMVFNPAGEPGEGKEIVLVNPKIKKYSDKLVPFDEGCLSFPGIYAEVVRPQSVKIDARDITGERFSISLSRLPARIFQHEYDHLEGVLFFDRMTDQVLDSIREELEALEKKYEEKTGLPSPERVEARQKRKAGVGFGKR

[17] = target: T7, AtPDF variant I130A (Arabidopsis thaliana, UniProt Q9FUZ2, I210A); test: biochemical; conditions: for Ki: 100 nM enzyme
T7 construct: Expression and purification of mature Arabidopsis thaliana PDF1B and all variants (i.e., AtPDF); made in house
Method: as §1, §4

[18] = target: T8, AtPDF variant I42N (Arabidopsis thaliana, UniProt Q9FUZ2, I122N); test: biochemical; conditions: for Ki: 100 nM enzyme
T8 construct: Expression and purification of mature Arabidopsis thaliana PDF1B and all variants (i.e., AtPDF); made in house
Method: as §1, §4

[19] = target: T5, AtPDF; test: Differential scanning calorimetry (DSC), thermal stability; type: binding; design: Expression and purification of mature Arabidopsis thaliana PDF1B and all variants (i.e., AtPDF); made in house; conditions: 10 µM protein, 20 µM actinonin; free enzyme 61°C
Method: as §2

[20] = substrate: CSCC[C@H](NC=O)C(=O)N[C@@H](C)C(=O)N[C@@H](CO)C(=O)O; test: purified protein, by the assay type; conditions: other: WT, substrate Fo-Met-Ala-Ser, 100 nM enzyme, 750 µM NiCl2, 37°C
Method: Assay of PDF activity was coupled to formate dehydrogenase, where the absorbance of NADH at 340 nm was measured at 37°C as previously described [71]. […] The kinetics parameters were derived from iterative non-linear least square calculations using the Michaelis-Menten equation based on the experimental data (Sigma-Plot; Kinetics module). […] The data were then calculated according to the method of Henderson, which can be used to determine the dissociation constant of the tight-binding competitive enzyme inhibitor [28],[49],[72] by varying both the inhibitor and substrate concentrations. To determine K I, k 5, and k 6, the reaction was initiated by the addition of enzyme as previously described [29],[49]. […] From the set of values obtained at various concentrations of I, k5 and k6 could be derived using kobs = k6 + k5[I]/(KI + [I]).

[21] = value is k5 multiplied by 10^3, no preincubation
[22] = value is k6 multiplied by 10^4, no preincubation
[23] = KI*app, 2 mM substrate, actinonin preincubated 10 min at 37°C
[24] = KI, no preincubation, started by adding enzyme

T4 sequence (Q9FUZ2 57-273 G121M): as the sequence (Q9FUZ2 57-273 I122W) above, with G65M, W66I counted along it
T8 sequence (Q9FUZ2 57-273 I122N): as the sequence (Q9FUZ2 57-273 I122W) above, with W66N counted along it
T2 sequence (Q9FUZ2 57-273 I122F): as the sequence (Q9FUZ2 57-273 I122W) above, with W66F counted along it
T7 sequence (Q9FUZ2 57-273 I210A): as the sequence (Q9FUZ2 57-273 I122W) above, with W66I, I154A counted along it
Chain of EcPDF (P0A6K3 whole entry): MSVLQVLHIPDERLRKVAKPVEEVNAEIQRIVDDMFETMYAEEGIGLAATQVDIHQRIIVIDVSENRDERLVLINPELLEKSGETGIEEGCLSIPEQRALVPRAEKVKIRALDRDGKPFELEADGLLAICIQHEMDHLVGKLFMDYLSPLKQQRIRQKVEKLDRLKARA
Chain of AtPDF variant G41Q (Arabidopsis thaliana, UniProt Q9FUZ2, G121Q) (Q9FUZ2 83-273 G121Q): as the sequence (Q9FUZ2 83-273 I122W) above, with G39Q, W40I counted along it
T1 sequence (Q9FUZ2 57-273 I122A): as the sequence (Q9FUZ2 57-273 I122W) above, with W66A counted along it

Molecule: AtPDF variant G41Q (Arabidopsis thaliana; G121Q)
- Km [1]: 6.7 ± 1.7 mM
- kcat [1]: 0.14 ± 0.02 s⁻¹
- kcat/Km [1]: 20 ± 10 M⁻¹ s⁻¹

Molecule: CCCCC[C@H](CC(=O)NO)C(=O)N[C@H](C(=O)N1CCC[C@H]1CO)C(C)C [actinonin]
- Kd [2]: 3 nM
- ΔΔGbinding [3]: 2.2 to 2.4 kcal/mol
- Kd [4]: 3.6 nM
- Kd [5]: 3.7 nM
- Kd [6]: 32 nM
- Kd [7]: 4.5 nM
- increase of T m by actinonin [8]: more than 20 °C
- increase in the T m by actinonin [9]: 12 °C
- Kd [10]: 48 nM
- KI*app ([10]; G41Q, nm = not measurable): nM
- Kd [11]: 0.9 nM
- Ki ([11]; K I*, enzyme 100 nM, actinonin preincubated with enzyme 10 min at 37°C, assay initiated by substrate): 0.9 ± 0.5 nM
- Ki ([11]; KI*app, Wild-type, 100 nM enzyme, 2 mM substrate, actinonin preincubated 10 min at 37°C): 2.3 ± 0.3 nM
- binding free energy difference between the two complexes ([11]; WT, RT ln(KI*/KI), 37°C): 3.1 kcal/mol
- k6 (s^-1) x 10^4 ([11]; Wild-type, Table S3 (with KI*app), value is k6 multiplied by 10^4): 10 ± 1 s^-1 x 10^4
- k4, dissociation of the primary enzyme-actinonin complex ([11]; assumes k3 = 10^9 M−1.s^−1 (diffusion-limited)): 140 s⁻¹ and 140 ± 10 s⁻¹
- k 5 (s^−1) ×10^3 [11, 21]: 63±9 s^−1 ×10^3 and 63 ± 6 s^−1 ×10^3
- k 6 (s^−1) ×10^4 [11, 22]: 4±1 s^−1 ×10^4
- KI*app [12]: nM
- k4, dissociation of the primary enzyme-actinonin complex ([13]; assumes k3 = 10^9 M−1.s^−1): 112 ± 10 s⁻¹
- k 5 (s^−1) ×10^3 [13, 21]: 170±20 s^−1 ×10^3
- k 6 (s^−1) ×10^4 [13, 22]: 19±2 s^−1 ×10^4
- increase in the T m by actinonin [14]: 12 °C
- Kd [15]: 2.8 nM
- k5 (s^-1) x 10^3 ([15]; I42F, value is k5 multiplied by 10^3): 89 ± 9 s^-1 x 10^3
- k6 (s^-1) x 10^4 ([15]; I42F, value is k6 multiplied by 10^4): 62 ± 6 s^-1 x 10^4
- Ki ([15]; KI*app, I42F, 2 mM substrate, actinonin preincubated 10 min at 37°C): 2.8 ± 0.2 nM
- Ki ([15]; KI, I42F, no preincubation, started by adding enzyme): 43 ± 5 nM
- Ki [16, 23]: 2.8 ± 0.4 nM
- Ki [16, 24]: 97 ± 6 nM
- k5 (s^-1) x 10^3 ([16]; value is k5 multiplied by 10^3): 52 ± 5 s^-1 x 10^3
- k6 (s^-1) x 10^4 ([16]; value is k6 multiplied by 10^4): 16 ± 2 s^-1 x 10^4
- Ki [17, 23]: 1.5 ± 0.4 nM
- Ki [17, 24]: 36 ± 5 nM
- k5 (s^-1) x 10^3 ([17]; value is k5 multiplied by 10^3): 49 ± 5 s^-1 x 10^3
- k6 (s^-1) x 10^4 ([17]; value is k6 multiplied by 10^4): 21 ± 2 s^-1 x 10^4
- Kd [18]: 6.3 nM
- k5 (s^-1) x 10^3 ([18]; I42N, value is k5 multiplied by 10^3): 52 ± 5 s^-1 x 10^3
- k6 (s^-1) x 10^4 ([18]; I42N, value is k6 multiplied by 10^4): 101 ± 10 s^-1 x 10^4
- Ki ([18]; KI*app, I42N, 2 mM substrate, actinonin preincubated 10 min at 37°C): 6.3 ± 0.4 nM
- Ki ([18]; KI, I42N, no preincubation, started by adding enzyme): 39 ± 4 nM
- T m of AtPDF upon binding of the inhibitor [19]: 81 °C

B1: AtPDF (Arabidopsis thaliana) (protein)
chain: AEVKRVSRKDDKVASATDVQFETPLKIVEYPDPILRAKNKRIDIFDENLKNLVDAMFDVMYKTDGIGLSAPQVGLNVQLMVFNPAGEPGEGKEIVLVNPKIKKYSDKLVPFDEGCLSFPGIYAEVVRPQSVKIDARDITGERFSISLSRLPARIFQHEYDHLEGVLFFDRMTDQVLDSIREELEALEKKYEEKTGLPSPERVEARQKRKAGVGFGKR
- Km [20]: 6.5 ± 0.7 mM
- kcat [20]: 37 ± 2 s⁻¹
- kcat/Km [20]: 5700 ± 600 M⁻¹ s⁻¹
